# Assays:
# [1] = system: clinical isolates T. rubrum DM 2006 1661, T. rubrum DM 2006 1358, T. mentagrophytes DM 2006 1503, T. mentagrophytes DM 2006 1498; test: Ex vivo human nail fragment model, treatment, clinical isolates of Trichophyton spp.; format: cell-based; details: Experiment 3
# From the text: Trichophyton rubrum strain NCPF0118 was obtained from the National Collection of Pathogenic Fungi, Bristol, UK. Clinical isolates of T. rubrum DM2006 1661, T. rubrum DM2006 1358, T. mentagrophytes DM2006 1503, T. mentagrophytes DM2006 1498 were isolated from patients suffering a range of tinea infections and were purchased from Professor Michel Monod (Service de Dermatologie, Université de Lausanne, Switzerland). Clinical isolates of Candida samples were also obtained from patients suffering from Candidal infection.
# The experiment was performed as described in Experiment 1 with modifications relating to the vehicle, concentrations and fungal strains used. […]
# At the end of the treatment period, the nail fragments were placed in sterile 2 ml microcentrifuge tubes containing 450 μl of a suspension broth consisting of Sabouraud's Liquid Medium, pH 5.6, containing approximately 100 mg of sterile zirconia beads (0.5 mm diameter). […] Colonies were counted on dishes that contained between 20 and 200 colonies in total, and the total number of cfu present in each sample was calculated. […] The counts were corrected for the surface area of the nails studied to give cfu/cm^2, transformed to log10 and means and standard errors of the mean were calculated using GraphPad Prism 4 (GraphPad, San Diego, Calif.). […]
# [2] = system: T. interdigitale NCPF0335; test: Ex vivo human nail fragment model, prevention of infection; format: cell-based, Trichophyton interdigitale; details: Experiment 8
# From the text: Six nail fragments were obtained. Three were assigned to each of two different infection prevention protocols, involving daily application of 2 different vehicle solutions, each containing a control and 3 different concentrations of Novexatin® (NP213). These vehicle solutions were: 50% (w/v) PEG 8000, and 50% (w/v) PEG 8000 plus 20% (w/v) urea. The concentrations of Novexatin® (NP213) studied were 0% (control), 1% (Novexatin® 1), 5% (Novexatin® 2) and 10% (Novexatin® 3) (w/v). The solutions were applied at a volume of 10 μl/cm^2, corrected for the surface area of the different nail fragments as described above. The applied solution was spread over the dorsal side of the nail, to mimic the intended clinical treatment and the ventral side of the nail rested on the agar surface. Each time the nails were contacted with the vehicle solutions, they were transferred to a new sterile Petri dish containing PBS agar to minimise any build-up of fungal growth on the agar. Nail fragments were contacted with the vehicle solutions daily for 7 days. Following such contact, each nail fragment was contacted with 10 μl of a spore suspension of T. interdigitale NCPF0335 which was prepared as described above. The spore suspension was applied to the ventral side of the nail (i.e. the side next to the skin in situ). […]
# T. rubrum NCPF0118 = test: In vitro MIC100 testing; format: cell-based, Trichophyton rubrum; details: versus T. rubrum NCPF0118; revealed in separate tests
substance,measurement,setting,value
7 to 200-mer (SEQ ID NO: 3) polyarginine [Novexatin® (NP213)],effect on survival of clinical isolates (dose dependence),"[1]; 0%, 5%, 10% (w/v) in 50% PEG 8000 + 20% urea",dose-dependent
same,effectiveness of treatment compared with T. rubrum NCPF0118,[1]; four clinical isolates,as effective as that observed when T. rubrum NCPF0118 was used
same,fungal growth on pre-treated nail fragments,"[2]; pre-treated daily for 7 days (1%, 5%, 10% w/v), after 24 hours from spore contact",no fungal growth
same,fungal growth on pre-treated nail fragments,[2]; up to 14 days after contact with spore suspension,No fungal growth was observed
same,concentration equal to 100× the MIC100,T. rubrum NCPF0118,~10 % (w/v)

# Source: US20130109049A1, “Method of Establishing a Fungal Nail Infection” (NOVABIOTICS LIMITED, priority 2009, published 2013)
